Results on four compounds are retold here after patent publication US9950067B2, “Trans carotenoids, their synthesis, formulation and uses” (Diffusion Pharmaceuticals, LLC, priority 2005, dated 2018).

A short description of data set [1]: Solubility in water and aqueous formulations. Type of data set: physicochemical. On the procedure: Formulation of TSC with Cyclodextrin-Mannitol • 1. Make up a solution containing equal-molar concentrations of the cyclodextrin and the TSC. Solutions containing over 20 mg TSC/ml of solution can be made this way. First, add the cyclodextrin to an injectable water, then add the TSC to that solution. • 2. Add d-mannitol, so that the final concentration is around 20 to 50 mg/ml of mannitol in solution. • 3. This solution can be added to isotonic saline in order to dilute it and still maintain the proper osmolality. Either add the solution to saline or add saline to the solution.
Formulation of TSC with Mannitol/Acetic Acid • 1. Make up a 0.01 M acetic acid solution in distilled water. • 2. […] Add the 0.0005 M acetic acid solution, slowly, to TSC. […] Add d-mannitol to above solution at a concentration of 50 mg/ml in order to obtain the proper osmolality. The pH of this solution is around 8 to 8.5. It should be close to being an isotonic solution, and, as such, can be injected directly into the blood stream.

Data set [2] relates to rats subjected to hemorrhagic shock. Nature of the data set: Treatment of hemorrhagic shock. Type of data set: in vivo. The note with it: for treatment of hemorrhagic shock: rats.
The test system of data set [3] is HCT116 human colon carcinoma tumors. Nature of the data set: Radiation sensitization of tumors grown on mice.
Method: There were six study groups of five mice per group (for a total of 30 mice) designated Study Groups 1 through 6. All mice in the study were injected intravenously with either a TSC dose or a saline control for five successive days. As shown below, Study Groups 1, 2 and 3 received TSC doses A, B and C, which corresponds to 0.07, 0.14 and 0.28 mg/kg respectively for the study B, and 1.35, 0.54 and 0.18 mg/kg respectively for the study A.
Group 4 was injected as a saline control. At 45 minutes post-injection on each of the five successive days, the tumors of Study Groups 1-4 received 2 Gy irradiation. Study Group 5 received TSC only and Study Group 6 received saline only, and neither Study Group 5 nor 6 received irradiation. Tumor volumes in all Study Groups were measured weekly for the earlier of 4 weeks or until the tumors reached 4 times the volume at the start of treatment.
A short description of data set [4]: Pulmonary administration, absorption into the blood stream. The data set is classed as in vivo, rats. On the procedure:
In this method, the rats were intubated and a small volume (0.1 mL usually) of the TSC solution was injected followed by two 3-mL puffs of air.
Additional studies have been done with pulmonary dosing in which the effect of the volume of liquid injected into the trachea as well as using TSC in its formulated drug product form were investigated. The formulated drug product contained 8% γ-cyclodextrin, 2.3% mannitol and 50 mM glycine and 20 mg/mL TSC, reconstituted in sterile water. Sterile saline (0.9%) was added as a diluent in these studies in order to achieve the desired dosages. The same dose (937 μg/kg) was administered to all rats.

Data set [5] in a line: Intramuscular administration, absorption into the blood stream. Type of data set: in vivo, rats. How it is done:
TSC is not absorbed via an intramuscular route when simply dissolved in de-ionized water; however, the addition of a cyclodextrin (as in the formulated drug product) results in absorption into the blood stream. Small volumes (0.05 mL) were injected into each thigh muscle of rats with TSC formulated with 2-hydroxypropyl-β-cyclodextrin or γ-cyclodextrin and dissolved in water.

Data set [6] is described as follows: Oral administration, plasma concentrations. The data set is classed as in vivo, rats. As to conditions: with γ-cyclodextrin. On the procedure:
PE-50 tubing was used to deliver formulated TSC into the stomachs of rats, and plasma concentrations were measured after that. Rats were fasted for 24 hours prior to each experiment. Water was given ad libitum and coprophagy was prevented by using cages with wire-mesh floors. One study involved rats that were allowed food ad libitum after TSC administration and another study involved rats in which food was withheld after TSC administration.

Data set [7] can be described thus: Stability of TSC in formulation versus pH. The note with it: aqueous formulation.
Data set [8] is described as follows: Preclinical study of myocardial infarction. The data set is classed as in vivo. As to conditions: injected intravenously.
The conditions of data set [9]: natural bipolar carotenoids, background; cited from earlier work.
The mark [10] stands for this setting: pulmonary, formulated drug product, 937 μg/kg.

Structures are written as SMILES. Where “and” joins values, the source holds several entries; their conditions need not be identical. Identical values can stand only once. Entries after “also recorded” stand apart in the source; their conditions may differ. Like-named read-outs stand apart in the source and are kept apart here.

The term solubility denotes the concentration that dissolves in the medium under given conditions. `CCOC(=O)/C(C)=C/C=C/C(C)=C/C=C/C=C(C)/C=C/C=C(\C)C(=O)OCC` [Compound E, Diethyl 2,6,11,15-Tetramethyl-hexadeca-2E,4E,6E,8E,10E,12E,14E-heptaene-1,16-diotate]: in [1] (in water and in THF), the “solubility” value is given as “poorly soluble”.

The term bioavailability denotes the share of a dose that reaches the circulation, judged against a reference dose that is usually intravenous. A higher bioavailability goes with good availability. As to `CC(/C=C/C=C(\C)C(=O)[O-])=C\C=C\C=C(C)\C=C\C=C(/C)C(=O)[O-].[Na+].[Na+]` [TSC, trans sodium crocetinate], the “effect on tachycardia” value in data set [2] (rats subjected to hemorrhagic shock) is reported as “reduce tachycardia”. Further, the “treatment of hemorrhagic shock” value in [2] (intramuscular injection) and in data set [2] (pulmonary route) was “successfully treated” each time. Further, the optimal dosage in [3] (Study A, i.v. 5 days, 2 Gy irradiation 45 minutes post-injection) was 0.18 mg/kg. Besides, in [3] (Study B, i.v. 5 days, 2 Gy irradiation 45 minutes post-injection), the “dosages that worked equally well” value is 0.07 mg/kg and 0.14 mg/kg. Further, in data set [3] (TSC alone, no irradiation, FIG. 3), the “effect on tumor growth” value is listed as “does not appreciably affect tumor growth”. For the same compound, the “pulmonary absorption without cyclodextrin” value in [4] (TSC in pH'd di-water) was “successful absorption into the blood stream”. In data set [4] (pulmonary, 937 μg/kg), the “effect of larger injection volume of the same dose on bioavailability” value was “greater bioavailability”. For the same compound, the “effect of γ-cyclodextrin on absorption into the systemic circulation” value in data set [4] (setting [10]) is “enhances absorption”. The “effect of γ-cyclodextrin on plasma clearance” value in data set [4] (setting [10]) is given as “increasing plasma clearance”. For the same compound, in [4] (rats, pulmonary), the “time to reach the maximum plasma concentration” value was less than 5 min. For the same compound, in data set [1] (0.0005 M acetic acid solution, aqueous buffer, thermodynamic from solid, read-out: Maximum solubility), the solubility lay within 6 to 6.5 mg/mL. The “dissolution in acetic acid” value in data set [1] (0.001 M acetic acid) is “doesn't dissolve”. Moreover, the “TSC content of aqueous solution” value in data set [1] (TSC and gamma-cyclodextrin) is ≤ 44 milligrams of TSC per ml of solution. In addition, the “TSC content of solution” value in data set [1] (formulated with cyclodextrin and mannitol) is listed as “over 20 mg TSC/ml of solution”. Besides, in [1] (water), the “solubility in water” value is listed as “soluble in water”. The bioavailability in data set [5] (rat, plasma, im, 3347 μg/kg body weight, rats, intramuscular 3347 μg/kg with 14 mg 2-hydroxypropyl-β-cyclodextrin per kg) worked out at 27%. Also, in data set [5] (rats, intramuscular 3347 μg/kg with 14 mg 2-hydroxypropyl-β-cyclodextrin per kg), the “peak plasma TSC concentration” value came to 4.8 µg/mL. For the same compound, the “absorption via intramuscular route” value in data set [5] (simply dissolved in de-ionized water) is given as “not absorbed”; in data set [5] (with γ-cyclodextrin), “successful absorption into the systemic circulation; also recorded: absorbed into the blood stream”. Moreover, the “effect of γ-cyclodextrin on oral absorption” value in [6] is reported as “enhances absorption”. In [7], the “stability versus pH” value is recorded as “more stable at higher pHs”. Besides, the “effect on ventricular fibrillation” value in data set [8] was “prevented ventricular fibrillation”.

With `CC(/C=C/C=C(\C)C(=O)O)=C\C=C\C=C(C)\C=C\C=C(/C)C(=O)O` [crocetin], the “solubility in water” value in data set [9] was “only sparingly soluble in water”.

On to `CC(/C=C/C=C(\C)C(=O)O[C@@H]1O[C@H](CO[C@@H]2O[C@H](CO)[C@@H](O)[C@H](O)[C@H]2O)[C@@H](O)[C@H](O)[C@H]1O)=C\C=C\C=C(C)\C=C\C=C(/C)C(=O)O[C@@H]1O[C@H](CO[C@@H]2O[C@H](CO)[C@@H](O)[C@H](O)[C@H]2O)[C@@H](O)[C@H](O)[C@H]1O` [crocin], for which the “solubility in water” value in [9] is recorded as “significant solubility in water”.
